# Source: patent publication US9090617B1, “Agonists of Src homology-2 containing protein tyrosine phosphatase-1 and treatment methods using the same” (National Taiwan University, priority 2011, dated 2015)
# “Also recorded” adds a separate entry of the source.
# Assays:
# PLC5 cells = test: MTT assay for cell growth inhibition in PLC5 cells; format: cell-based
# Procedure: These compounds were analyzed by MTT assay for cell growth inhibition in the PLC5 cells.
# Next, we changed the pyridine to a quinoline ring and amide linker to generate compounds 12-25. These compounds were also analyzed by MTT assay for cell growth inhibition in the PLC5 cells.
# Raf-1 = molecular target: T1, Raf-1 (Homo sapiens, UniProt P04049); test: Raf-1 kinase activity in lysates of treated cells; format: cell-based
# T1 construct: Raf-1 immunoprecipitated from PLC5 cell extracts was incubated with MEK recombinant protein; endogenous in cells; host or cells: PLC5
# Description: (§1) The RediPlate 96 EnzChek® Tyrosine Phosphatase Assay Kit (R-22067) was used for SHP-1 activity assay (Molecular Probes, Carlsbad, Calif.). The Raf-1 kinase cascade assay kit (Upstate-Millipore, Billerica, Mass.) was used to examine the Raf-1 kinase activity. The JAK2 kinase activity kit was purchased from Reaction Biology Corp. (Malvern, Pa.).
# phospho-STAT3 (Tyr705) = test: Phospho-STAT3 (Tyr705) sandwich ELISA; format: cell-based
# Procedure: A PathScan Phospho-Stat3 (Tyr705) Sandwich ELISA Kit was used for the detection of phospho-STAT3 (Cell Signaling, Danvers, Mass.). Cells were pre-treated with IL-6 1 ng/ml and then exposed with various compounds at 10 μM for 24 h. After incubation with cell lysates, both non-phospho- and phospho-Stat3 proteins are captured by the coated antibody. The expression of phospho-STAT3 was measured at 450 nm absorbance.
# The decreased level of P-STAT3 induced by these derivatives was correlated with cell toxicity. In the other words, these derivatives induced cell death in part through inhibition of STAT3.
# We also assayed the activation status of p-STAT3 by STAT3 ELISA. […] SC-1 or sorafenib-treated cell extracts were incubated with antibody against phosphorylated STAT3 at Y705. […] To evaluate the transcriptional activity, STAT3-binding region was cloned into Luc reporter. […] The firefly luciferase activity was evaluated and normalized by Renilla luciferase.
# p-STAT3 activity: PLC5 cells treated with SC derivatives were collected in RIPA buffer and analyzed in p-STAT3 ELISA kit. The assay protocol follows the manufacturer.
# [1] = system: p-STAT3, cyclin D1, survivin, Mc1-1; test: Western blot of STAT3-related proteins in HCC cells; format: cell-based; conditions: HCC cells, 24 h
# Procedure: Cells were treated with various compounds at 5 and 10 μM for 24 h. Cell lysates were analyzed by western blot.
# HCC cells treated with SC-43 (10 μM for 24 h) were collected with RIPA lysis buffer. Antibodies for immunoblotting such as cyclin D1 was purchased from Santa Cruz Biotechnology. Other antibodies such as survivin, phospho-STAT3 (Tyr705), STAT3, Mc1-1, SOCS1, and SOCS3 were from Cell Signaling.
# JAK2 = molecular target: T2, JAK2 (Homo sapiens, UniProt O60674); test: JAK2 kinase activity; format: cell-based; conditions: PLC5 cells, 10 μM, 24 h
# T2 construct: endogenous in cells; host or cells: PLC5
# Description: as §1
# Huh-7 tumors = system: Huh-7 tumors
# Procedure: Male NCr athymic nude mice (5-7 weeks of age) were obtained from the National Laboratory Animal Center (Taipei, Taiwan). All experimental procedures using these mice were performed in accordance with protocols approved by National Taiwan University. […] Controls received vehicle (Chen K F et al. Cancer Res. 2008; 68:6698-6707).
# HCC cells [2] = test: cells
# Description: Points, mean; bars, SD (n=6).
# Points, mean; bars, SD ([…]). […] The N-SH2 domain is in orange, the C-SH2 domain is in marine, the PTP domain is in hot pink, and the linkers between them are in gray. […] ELISA, enzyme-linked immunosorbent assay.
# HCC cells [3] = test: Apoptosis analysis by flow cytometry (sub-G1); format: cell-based; conditions: HCC cells, 24 h
# Procedure: Apoptotic cells were measured by flow cytometry (sub-G1). After treatment with various compounds, cells were trypsinized, collected by centrifugation and resuspended in PBS. After centrifugation, the cells were washed in PBS and resuspended in […] (PI) staining solution. Specimens were incubated in the dark for 30 min at 37° C. and then analyzed with an EPICS Profile II flow cytometer (Coulter Corp., Hialeah, Fla.). All experiments were performed in triplicate
# Collected cells were fixed in 75% Ethanol and stained with 20 ug/ml Propidium Iodide (PI). Sub-G1 analysis was performed by flow-cytometry. […] Points, mean; bars, SD (n=6).
# STAT3 = STAT3 luciferase reporter assay; format: cell-based; conditions: 10 μM, 24 h
# Procedure: Cells were seeded in 96-well plate and pre-treated with IL-6 at the dose […] for 30 min. The STAT3 reporter kit was purchased from SABiosciences (Frederick, Md.).
# STAT3 reporter assay: PLC5 cells were seeded in a 96-well plate. Cells were pretransfected with STAT3 reporter construct for 24 h and treated with derivatives for another 24 h. The STAT3 Reporter Kit was purchased from SABiosciences.
# [4] = system: MDAMB231, MDAMB468, MCF-7, HL-60, KG-1 and ML-1; test: Anti-proliferation in breast cancer and leukemia cell lines; format: cell-based; conditions: MDAMB231, MDAMB468, MCF-7, HL-60, KG-1, ML-1
# Procedure: The Huh-7 HCC cell line was obtained from the Health Science Research Resources Bank (Osaka, Japan; JCRB0403). The PLC/PRF/5 (PLC5), Sk-Hep-1, and Hep3B cell lines were obtained from American Type Culture Collection (Manassas, Va.). The cells were maintained in DMEM supplemented with 10% FBS, 100 units/mL penicillin G, 100 μg/mL streptomycin sulfate and 25 μg/mL amphotericin B in a 37° C. humidified incubator in an atmosphere of 5% CO2 in air. Other cell lines, including breast cancer cells e.g. MDAMB231, MDAMB468, MCF-7, and leukemia cancer cells e.g. HL-60, KG-1 and ML-1 are also provided for the assays described below.
# We also examed the effects of SC-1 and SC-43 in other cancer cell lines, including breast cancer cell lines e.g. MDAMB231, MDAMB468, MCF-7, and leukemia cancer cell lines e.g. HL-60, KG-1 and ML-1.
# SHP-1 = SHP-1 (Homo sapiens, UniProt P29350); test: Phosphatase activity of SHP-1 immunoprecipitated from PLC5 cells, incubated with compound in vitro; format: biochemical; design: PLC5 protein extract was incubated with anti-SHP-1 antibody in immunoprecipitation buffer overnight; endogenous in cells; host or cells: PLC5 (PLC/PRF/5); conditions: PLC5 lysates, incubated 6 hours
# Procedure: PLC5 protein extract was incubated with anti-SHP-1 antibody in immunoprecipitation buffer overnight. Protein G Sepharose 4 Fast flow (GE Healthcare Bio-Science) was added to each sample, followed by incubation for 3 hours at 4° C. with rotation. […] RediPlate 96 EnzChek Tyrosine Phosphatase Assay kit (R-22067) was used for SHP-1 activity assay (Molecular Probes).
# T1 sequence (P04049 whole entry): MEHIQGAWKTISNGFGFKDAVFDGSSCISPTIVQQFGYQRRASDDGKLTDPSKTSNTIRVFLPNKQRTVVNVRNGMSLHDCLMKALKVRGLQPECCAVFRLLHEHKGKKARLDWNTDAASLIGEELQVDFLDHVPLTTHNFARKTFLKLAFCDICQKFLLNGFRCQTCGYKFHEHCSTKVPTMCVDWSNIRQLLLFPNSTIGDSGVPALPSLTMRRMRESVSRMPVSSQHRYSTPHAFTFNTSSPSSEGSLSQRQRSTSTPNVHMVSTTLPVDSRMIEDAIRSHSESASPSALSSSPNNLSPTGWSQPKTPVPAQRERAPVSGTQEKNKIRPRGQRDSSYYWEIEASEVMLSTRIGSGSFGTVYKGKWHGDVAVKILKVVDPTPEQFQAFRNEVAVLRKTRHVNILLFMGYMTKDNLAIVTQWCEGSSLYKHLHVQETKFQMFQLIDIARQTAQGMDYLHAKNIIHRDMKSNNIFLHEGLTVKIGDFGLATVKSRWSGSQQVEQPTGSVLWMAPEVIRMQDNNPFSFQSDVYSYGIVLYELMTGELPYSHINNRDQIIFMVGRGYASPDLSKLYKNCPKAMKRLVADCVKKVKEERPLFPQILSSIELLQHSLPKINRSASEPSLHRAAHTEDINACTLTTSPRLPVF
# Sequence of SHP-1 (P29350 whole entry): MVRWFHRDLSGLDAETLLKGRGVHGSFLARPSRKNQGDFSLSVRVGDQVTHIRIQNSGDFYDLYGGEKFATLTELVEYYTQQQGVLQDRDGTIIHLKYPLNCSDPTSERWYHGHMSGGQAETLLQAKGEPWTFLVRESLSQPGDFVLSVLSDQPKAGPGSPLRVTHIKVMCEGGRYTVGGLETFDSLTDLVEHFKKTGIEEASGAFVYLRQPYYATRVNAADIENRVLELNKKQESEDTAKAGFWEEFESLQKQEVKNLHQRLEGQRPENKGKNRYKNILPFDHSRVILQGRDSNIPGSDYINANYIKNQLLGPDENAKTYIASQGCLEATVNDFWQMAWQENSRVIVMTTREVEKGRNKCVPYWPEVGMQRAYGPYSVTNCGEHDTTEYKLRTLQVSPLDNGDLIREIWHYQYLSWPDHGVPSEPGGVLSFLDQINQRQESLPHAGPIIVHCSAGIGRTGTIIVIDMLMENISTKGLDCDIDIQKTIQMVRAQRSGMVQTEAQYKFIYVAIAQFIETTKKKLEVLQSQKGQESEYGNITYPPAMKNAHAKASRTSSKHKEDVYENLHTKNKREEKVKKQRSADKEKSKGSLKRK
# T2 sequence (O60674 whole entry): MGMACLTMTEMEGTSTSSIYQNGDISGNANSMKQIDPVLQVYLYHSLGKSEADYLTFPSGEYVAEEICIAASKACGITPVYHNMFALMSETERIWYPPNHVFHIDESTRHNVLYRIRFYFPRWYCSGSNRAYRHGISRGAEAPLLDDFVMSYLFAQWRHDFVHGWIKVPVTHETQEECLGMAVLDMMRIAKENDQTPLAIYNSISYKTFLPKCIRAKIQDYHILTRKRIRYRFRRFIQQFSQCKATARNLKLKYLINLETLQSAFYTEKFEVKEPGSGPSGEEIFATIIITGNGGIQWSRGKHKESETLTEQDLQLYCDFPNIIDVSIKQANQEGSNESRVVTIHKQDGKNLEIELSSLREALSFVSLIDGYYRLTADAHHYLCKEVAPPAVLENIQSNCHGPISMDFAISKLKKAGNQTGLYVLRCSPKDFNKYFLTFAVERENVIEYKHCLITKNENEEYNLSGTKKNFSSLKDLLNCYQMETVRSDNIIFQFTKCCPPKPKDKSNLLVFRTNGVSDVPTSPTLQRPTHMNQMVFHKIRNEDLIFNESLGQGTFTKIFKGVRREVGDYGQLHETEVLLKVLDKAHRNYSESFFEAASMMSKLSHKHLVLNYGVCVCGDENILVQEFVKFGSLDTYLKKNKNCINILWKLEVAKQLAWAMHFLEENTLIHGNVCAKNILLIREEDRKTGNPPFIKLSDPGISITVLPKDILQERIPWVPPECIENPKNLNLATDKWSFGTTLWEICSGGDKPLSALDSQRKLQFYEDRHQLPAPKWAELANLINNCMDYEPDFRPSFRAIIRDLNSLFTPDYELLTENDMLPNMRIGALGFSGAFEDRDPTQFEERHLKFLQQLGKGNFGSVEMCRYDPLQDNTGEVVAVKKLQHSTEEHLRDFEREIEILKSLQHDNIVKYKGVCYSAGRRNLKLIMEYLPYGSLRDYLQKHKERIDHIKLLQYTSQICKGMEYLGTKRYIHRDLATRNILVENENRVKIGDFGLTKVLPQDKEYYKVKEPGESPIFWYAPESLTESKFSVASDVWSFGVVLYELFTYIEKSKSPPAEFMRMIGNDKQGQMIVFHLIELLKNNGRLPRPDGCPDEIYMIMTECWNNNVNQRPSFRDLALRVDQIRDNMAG
compound,measurement,setting,value
"N#Cc1ccc(Oc2ccc(NC(=O)Nc3ccc(Cl)c(C(F)(F)F)c3)cc2)cc1 [Compound 1, 1-(4-Chloro-3-(trifluoromethyl)phenyl)-3-(4-(4-cyanophenoxyl)phenyl)urea]",IC50,PLC5 cells,7.5 µM
same,Raf-1 activity versus vehicle control,Raf-1; PLC5 cells (FIG. 3),showed the same Raf-1 activity as vehicle control
same,inhibition of Raf-1 activity,"Raf-1; Raf-1 immunoprecipitated from PLC5 or Hep3B cell extracts, 10 μM, 24 h",did not inhibit the activity of Raf-1
same,P-STAT3 state by ELISA,"phospho-STAT3 (Tyr705); PLC5 cells, IL-6 stimulated, 10 uM, 24 h",showed a high degree of dephosphorylation of STAT3; also recorded: exhibited the same level of downregulation of P-STAT3 as sorafenib did
same,activity of p-STAT3 by STAT3 ELISA,"phospho-STAT3 (Tyr705); Sk-Hep1 cells pre-treated with IL-6, 24 h",decreased the activity of p-STAT3 significantly
same,p-STAT3 and STAT3-related proteins (Western blot),[1],down-regulated p-STAT3 at Y705 residue and suppressed Mc1-1 and cyclin D1
same,kinase activity of JAK2,JAK2,neither sorafenib nor SC-1 altered the kinase activity of JAK2
same,tumor size relative to vehicle-treated mice at the end of treatment,"Huh-7 tumors; Huh-7 xenograft, 10 mg/kg p.o. once daily",25%
same,SHP-1 activity in Huh-7 tumors,Huh-7 tumors; tumor extract,induced significant rising of SHP-1 activity
same,p-STAT3 in Huh-7 tumors,"Huh-7 tumors; tumor extract, Western blot",down regulated p-STAT3
same,viability of HCC cells / cytotoxicity,HCC cells [2],decreased the viability of various HCC cells
same,apoptosis (sub-G1),HCC cells [3],showed a significant increase in sub-G1 phase population
same,transcription activity of STAT3 (Luc reporter),STAT3,transcription activity of STAT3 was significantly decreased
same,growth of breast cancer and leukemia cell lines,[4],effective in inhibiting the growth of cancer cells
same,expression of p-VEGFR2 (Tyr1175),p-VEGFR2 (Tyr1175),did not have significant effect
same,activity of SHP-1 in SHP-1 immunoprecipitates incubated with drug,SHP-1,increase the activity of SHP-1
